Activity calls are given as the source filed them. The calls are words filed in the database; no cut-off is given here.
How the values were obtained:
[1] = molecular target: T1, Peroxisome proliferator-activated receptor gamma (Homo sapiens, UniProt P37231); experiment: Inverse agonist activity at GST tagged human PPARgamma LBD (231 to 505 residues) expressed in Escherichia coli BL21(DE3) assessed as recruitment of fluorescein labeled corepressor NCOR2 Smrt-ID2 peptide to PPARgamma LBD incubated for 24 hrs by LanthaScreen TR-FRET assay
T1 sequence (P37231 whole entry): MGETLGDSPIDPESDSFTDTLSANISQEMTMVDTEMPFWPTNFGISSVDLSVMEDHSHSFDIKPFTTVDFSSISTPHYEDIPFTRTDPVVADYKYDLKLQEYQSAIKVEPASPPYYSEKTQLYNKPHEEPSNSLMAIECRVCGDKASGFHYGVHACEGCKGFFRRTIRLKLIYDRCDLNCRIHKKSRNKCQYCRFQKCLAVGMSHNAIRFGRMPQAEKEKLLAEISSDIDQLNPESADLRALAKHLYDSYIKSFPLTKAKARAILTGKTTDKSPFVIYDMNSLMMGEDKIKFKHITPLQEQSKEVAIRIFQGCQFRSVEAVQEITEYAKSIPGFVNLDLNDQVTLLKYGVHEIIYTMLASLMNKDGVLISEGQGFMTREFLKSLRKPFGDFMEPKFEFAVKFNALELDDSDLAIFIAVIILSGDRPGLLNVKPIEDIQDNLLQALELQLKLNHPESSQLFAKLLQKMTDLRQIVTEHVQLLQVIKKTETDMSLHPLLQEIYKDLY

[2] = Antiproliferative activity against human UM-UC-9 assessed as inhibition of cell proliferation by measuring maximum efficacy after 7 days by IncuCyte live-cell imaging assay; type: functional; conditions: UM-UC-9, 168 h, time 7 day
[3] = molecular target: T1, Peroxisome proliferator-activated receptor gamma; experiment: Inverse agonist activity at human PPARgamma in human RT112/84 transfected with NLuc-fused FABP4 assessed as reduction in PPARgamma transactivation incubated for 6 to 18 hrs by Nano-Glo luciferase assay; type: cell-based
[4] = Antiproliferative activity against human UM-UC-9 assessed as inhibition of cell proliferation measured after 7 days by IncuCyte live-cell imaging assay; conditions: UM-UC-9, 168 h
[5] = molecular target: T2, Peroxisome proliferator-activated receptor gamma (Mus musculus) (UniProt P37238); experiment: Inverse agonist activity at PPARgamma in NMRI-nu/nu mouse assessed as reduction in Fabp4 mRNA expression in adipose tissue at 100 mg/kg for 3 days and measured 6 hrs last dose by qPCR analysis; type: organism-based; conditions: time 3.0 day
T2 sequence (whole entry): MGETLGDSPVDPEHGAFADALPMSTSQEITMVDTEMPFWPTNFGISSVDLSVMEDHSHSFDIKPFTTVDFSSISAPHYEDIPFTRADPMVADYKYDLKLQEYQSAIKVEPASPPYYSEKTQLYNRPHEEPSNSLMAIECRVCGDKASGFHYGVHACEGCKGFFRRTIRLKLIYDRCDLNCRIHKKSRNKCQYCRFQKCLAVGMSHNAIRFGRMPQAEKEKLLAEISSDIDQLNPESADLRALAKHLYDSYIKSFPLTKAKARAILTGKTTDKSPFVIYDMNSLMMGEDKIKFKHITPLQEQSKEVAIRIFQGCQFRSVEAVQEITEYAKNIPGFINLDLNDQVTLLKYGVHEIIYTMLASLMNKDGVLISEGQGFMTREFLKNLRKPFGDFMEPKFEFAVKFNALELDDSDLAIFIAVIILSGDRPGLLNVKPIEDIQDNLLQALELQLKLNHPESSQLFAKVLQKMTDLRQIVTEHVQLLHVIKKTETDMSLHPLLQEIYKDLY

[6] = molecular target: T3, Peroxisome proliferator-activated receptor delta (Homo sapiens, UniProt Q03181); experiment: Inverse agonist activity at human PPARdelta expressed in CHO cells co-expressing GAL4-NHR-LBD assessed as transcriptional repression preincubated for 6 hrs followed by luciferin addition by luminescence method; type: cell-based
T3 sequence (Q03181 whole entry): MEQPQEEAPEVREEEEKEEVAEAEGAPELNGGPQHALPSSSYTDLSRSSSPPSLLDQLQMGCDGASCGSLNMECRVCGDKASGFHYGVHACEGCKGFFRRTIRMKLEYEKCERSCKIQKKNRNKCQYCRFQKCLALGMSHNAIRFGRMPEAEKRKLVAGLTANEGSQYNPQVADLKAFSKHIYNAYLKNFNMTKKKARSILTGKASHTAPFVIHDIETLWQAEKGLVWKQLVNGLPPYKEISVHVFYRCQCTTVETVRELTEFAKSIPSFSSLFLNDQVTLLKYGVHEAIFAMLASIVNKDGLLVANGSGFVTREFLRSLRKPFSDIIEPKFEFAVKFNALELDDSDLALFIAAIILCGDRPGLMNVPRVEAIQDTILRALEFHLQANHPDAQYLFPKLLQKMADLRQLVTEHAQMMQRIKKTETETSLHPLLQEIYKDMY

[7] = molecular target: T4, Peroxisome proliferator-activated receptor alpha (Homo sapiens, UniProt Q07869); experiment: Agonist activity at human PPARalpha expressed in CHO cells co-expressing GAL4-NHR-LBD assessed as transcriptional activation preincubated for 6 hrs followed by luciferin addition by luminescence method; type: cell-based
T4 sequence (Q07869 whole entry): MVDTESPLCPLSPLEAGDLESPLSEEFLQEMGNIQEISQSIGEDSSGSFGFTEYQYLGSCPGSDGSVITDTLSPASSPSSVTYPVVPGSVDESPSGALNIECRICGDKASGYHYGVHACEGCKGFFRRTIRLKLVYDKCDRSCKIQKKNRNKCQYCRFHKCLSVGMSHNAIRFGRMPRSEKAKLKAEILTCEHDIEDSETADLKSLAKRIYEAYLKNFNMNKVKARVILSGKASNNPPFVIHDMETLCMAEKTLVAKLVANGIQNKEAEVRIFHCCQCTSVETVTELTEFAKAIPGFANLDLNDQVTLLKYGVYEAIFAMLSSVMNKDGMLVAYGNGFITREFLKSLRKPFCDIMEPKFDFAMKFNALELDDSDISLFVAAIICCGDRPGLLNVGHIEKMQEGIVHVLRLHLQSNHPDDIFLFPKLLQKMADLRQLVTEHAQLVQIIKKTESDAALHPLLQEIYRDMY

SMILES | EC50 [1] [µM] | IC50 [3] [µM] | Activity [5] | IC50 [6] [µM] | IC50 [7] [µM] | Emax [2] [%] | IC50 [4] [µM]
Cc1cccnc1NC(=O)c1cc(C(=O)NCc2ccc(F)c(F)c2)c(F)cc1Cl | 0.5 | 0.091 | – | – | – | 108 | 0.695
O=C(NCc1ccccc1)c1cc(C(=O)Nc2ccccc2)c(Cl)c(C(F)(F)F)c1 | 2.2 | > 5 | – | – | – | – | –
Cc1cccc(CNC(=O)c2ccc(Cl)c(C(=O)Nc3ccccc3)c2)c1 | 3 | > 5 | – | – | – | – | –
Cc1c(C)n(Cc2ccc(Cl)c(O[C@@H](C)C(=O)O)c2)c2ccc(C(=O)N[C@@H](C)c3ccc(C(C)(C)C)cc3)cc12 | – | – | inactive | 9 | 0.935 | – | –
Cc1ccccc1CNC(=O)c1ccc(Cl)c(C(=O)Nc2ccccc2)c1 | 1.77 | 1.04 | – | – | – | – | –

Now from value to molecule, other results behind:

EC50 [1] [µM] | IC50 [3] [µM] | Activity [5] | IC50 [6] [µM] | IC50 [7] [µM] | SMILES | Emax [2] [%] | IC50 [4] [µM]
0.049 | – | – | – | – | Cc1cc(-c2nnco2)ccc1NC(=O)c1cc(C(=O)NCc2ccc(F)c(F)c2)c(F)cc1Cl | 87 | –
0.069 | 0.038 | – | – | – | Cc1ccccc1NC(=O)c1cc(C(=O)NCc2ccccc2)c(F)cc1Cl | 26 | 0.165
0.11 | – | – | – | – | O=C(NCc1ccc(F)c(F)c1)c1cc(C(=O)Nc2ccccn2)c(Cl)cc1F | 100 | –

Source: ChEMBL document CHEMBL5236643, “Discovery and characterization of orally bioavailable 4-chloro-6-fluoroisophthalamides as covalent PPARG inverse-agonists” (Bioorg Med Chem, 2023)
